In US11110105B2, “Compounds, composition and uses thereof for treating cancer” (INSTITUT GUSTAVE ROUSSY, priority 2017, dated 2021):
Entries after “also recorded” stand apart in the source; their conditions may differ.

Key:
[1] = system: splicing of the Globin-SL8-intron gene product in B16F10 cells; assay: qRT-PCR of unspliced/spliced globin-SL8-intron RNA, B16F10; assay type: cell-based, mouse; conditions: 15 μM isoginkgetin, 35 μM IP2 or 35 μM M2P2, 48 hours
Experimental: (§1) RNA was extracted and qRT-PCR was performed with primers amplifying the unspliced (intron) and the spliced (exon) globin-SL8-intron RNA. Data are given as mean ±SEM of the ratio of 2^−ΔΔCt intron and 2^−ΔΔCt exon of at least three independent experiments. […] Data are express as mean ±SEM of the percentage of viable cells compared to the control condition of at least three independent experiments. *P<0.05, **P<0.01, ***P<0.001 (unpaired student t test).
In addition, it has been shown that cancer cells can acquire deficiencies in the splicing machinery that benefit their growth, for example by preventing the expression of tumor suppressor genes.

[2] = system: MCA205 mouse sarcoma cell line; assay: MTT assay on MCA205 cell line; assay type: cell-based; conditions: MCA205 WT cells, 15 μM or 35 μM
Experimental: as §1
(§2) MCA205 mouse sarcoma cell line is cultured at 37° C. under 5% CO2 in RPMI 1640 medium (Life Technologies) in the presence of 1% glutamine, 1% sodium pyruvate, 1% non-essential amino-acids, 1% penicillin/streptomycin and 10% FBS (Life Technologies) under standard conditions. B16F10 mouse melanoma cell line, MRC5 human fibroblast cell line and A375 human melanoma cell line are cultured at 37° C. under 5% CO2 in DMEM medium (Life Technologies) containing 1% glutamine, 1% penicillin/streptomycin and 10% FCS under standard conditions. A549 human lung carcinoma cell line is cultured at 37° C. under 5% CO2 in DMEM/F12+Glutamax I in the presence of 1% Hepes, 1% sodium pyruvate and 10% FBS under standard conditions. Stable MCA205-Globin-SL8-intron cell line are cultured under the same condition as MCA205 cell line with additional 2 mg/ml G418 (geneticin from Life Technologies) for selection. Stable B16F10-Globin-SL8-intron cell line are cultured under the same condition as B16F10 cell line with additional 2 mg/ml G418 (geneticin from Life Technologies) for selection. The SL8/Kb-specific (B3Z) T-cell reporter hybridoma are cultured at 37° C. under 5% CO2 in RPMI 1640 medium (Life Technologies) in the presence of 1% glutamine, 0.1% β-galactosidase, 1% penicillin/streptomycin and 10% FCS under standard conditions.
(§3) MTT assay on MCA205 and B16F10 cell lines treated with 6.25 μM, 15 μM or 25 μM of isoginkgetin. Dare are given as the mean of the percentage of cell viability ±SEM from at least three independent experiments.

[3] = system: H2-K^b molecules at the cell surface of B16F10 cells; assay: Flow cytometry of H2-K^b expression, B16F10; assay type: cell-based, mouse
Excerpt: Flow cytometry analyses of H2-K^b expression on MCA205 and B16F10 cells treated with (A) isoginkgetin. Flow cytometry analyses of transiently expressed H2-K^b expression on A375, A549 and MRC5 cells treated with (B) isoginkgetin.

[4] = system: B16F10 globin-SL8-intron tumors; assay: Tumor challenge, B16F10 globin-SL8-intron in immunodeficient Nu/Nu nude mice; assay type: in vivo, mouse; conditions: 18 mg/kg intraperitoneally, days 5, 10 and 15
Experimental: (A) Experimental settings. Growth of (B) sarcoma MCA205 or (C) melanoma B16F10 cells that both stably express the globin-SL8-intron construct or (D) MCA205 Wild Type (WT) or (E) B16F10 WT cells that were subcutaneously inoculated on the flank of immunocompetent C57BL/6 mice injected intraperitoneally with 12 mg/kg or 18 mg/kg of isoginkgetin at days 5, 10 and 15 after inoculation. Tumor size was assessed every 3 to 4 days until reaching the established ethical endpoints. Each line represents the tumor size in area (mm^2) of 6 mice in each group. Size in area (mm^2) of (F) MCA205 globin-SL8-intron, (G) B16F10 globin-SL8-intron, (H) MCA205 WT or (I) B16F10 WT tumors subcutaneously inoculated on the flank of immunodeficient Nu/Nu Nude mice injected intraperitoneally with 18 mg/kg of isoginkgetin at days 5, 10 and 15 after inoculation. Data are presented at the day before the endpoints are reached.
Each line represents the tumor size in area (mm^2) of at least 6 mice in each group. The C right panel represents the tumor size at day 27. […]
Inventors then assessed the requirement of the immune response for isoginkgetin to reduce tumor growth Immunodeficient Nu/Nu nude mice were inoculated subcutaneously with either MCA205 or B16F10 cells that stably express the Globin-intron-SL8 or WT, and were treated with the same settings as previously described (FIG. 9A). […]

[5] = MTT viability, human cells (text summary of table 1); assay type: cell-based; conditions: concentrations used (2.5 and 6.25 μM), A375, A549, MRC5, read-out: viability of human cells upon treatment
Excerpt: Cancer cells display different intracellular mechanisms that can shape the pool and the quantity of peptides presented on MHC class I (MHC-I) molecules at their surface, leading to reduction of their antigenicity and escape of T-cell recognition. Inventors have shown that PTPs are a major source of peptides for the endogenous MHC-I pathway in vitro. In addition, they have provided the first proof of the positive impact of splicing inhibition on PTPs-dependent antigen presentation by treating HEK cells with the splicing inhibitor isoginkgetin. The latter has been reported to inhibit the spliceosome during the early stages of its assembly. In view to improve antigenicity and immune recognition of cancer cell lines, inventors determined whether isoginkgetin was able to modulate positively the expression and the presentation of tumor associated PTPs-derived antigens (TA-PTPs) at cancer cells surface. For that purpose, the human melanoma cell line A375, the human lung cancer cell line A549 and the normal human fibroblast lung cell line MRC5 were transiently expressing the MHC-I H2-K^b molecule and the PTPs-SL8 epitope from an intron within the β-Globin gene construct (Globin-SL8-intron) and treated with different concentrations of isoginkgetin for 18 h. […]

[6] = MTT assay on MCA205 cell line; assay type: cell-based, mouse; conditions: mouse, MCA205 sarcoma cells, MTT, read-out: % cell viability (±SEM)
Experimental: as §1, §2, §3

| SMILES | splicing of Globin-SL8-intron RNA (ratio unspliced/spliced, qRT-PCR) [1] | toxicity (MTT, percentage of viable cells compared to control) [2] | expression of the H2-K^b molecules at the cell surface [3] | tumor growth [4] | viability [5] | viability at 6.25 µM ([6]; MCA205, 6.25 μM) | viability at 15 µM ([6]; MCA205, 15 μM) | viability at 25 µM ([6]; MCA205, 25 μM) |
| --- | --- | --- | --- | --- | --- | --- | --- | --- |
| COc1ccc(-c2cc(=O)c3c(OC)cc(OP(=O)([O-])[O-])c(-c4cc(-c5cc(=O)c6c(OC)cc(OP(=O)([O-])[O-])cc6o5)ccc4OC)c3o2)cc1.[Na+].[Na+].[Na+].[Na+] [IM2P2] | does not impact splicing; also recorded: no impact | no toxicity | is not affected |  |  |  |  |  |
| COc1ccc(-c2cc(=O)c3c(O)cc(O)c(-c4cc(-c5cc(=O)c6c(O)cc(O)cc6o5)ccc4OC)c3o2)cc1 [Isoginkgetin, isoginkgetin] |  |  |  | No effect | > 80% | 84.8% | 56.3% | 51.7% |
